Data: patent publication US10941157B2, “Pesticidal compositions and uses thereof” (Gilead Apollo, LLC, priority 2015, dated 2021)
In brackets after ≈: the same amount, converted by molar mass. Like-named read-outs stand apart in the source and are kept apart here.

Legend:
Assay type in all cases: cell-based
[1] = system: Fusarium virguliforme (Fv); experiment: In vitro pathogen growth inhibition assay, Fv
How it was run: (§1)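 Spores in 17% V8 liquid medium, or 1.5 mm Rs mycelial plugs in ¼ PDB, incubated with compound; final concentration checked by OD600 for precipitation. OD readings at 24 and 48 h, blank-subtracted, plus visual ratings; value is concentration giving ≥90% growth inhibition.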

Septoria tritici (St) = experiment: In vitro pathogen growth inhibition assay, St; conditions: Zymoseptoria tritici, 48 h
How it was run: (§2)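 Value reported is the compound concentration reaching ≥90% growth inhibition, from OD readings at 24 and 48 h after blank subtraction, confirmed visually. Inoculum was spores diluted in 17% V8 medium, except Rs, using 1.5 mm mycelial plugs in ¼ PDB; actual compound concentration corrected via OD600.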

[2] = system: Fusarium moniliforme (Fm); experiment: In vitro pathogen growth inhibition assay, Fm; conditions: Fusarium verticillioides
How it was run: as §2

[3] = system: Phytophthora capsici (Pc); experiment: In vitro pathogen growth inhibition assay, Pc; conditions: 48 h
How it was run: as §1

[4] = system: Collectotrichum graminicola (Cg); experiment: In vitro pathogen growth inhibition assay, Cg; conditions: 48 h
How it was run: as §2

[5] = system: Saccharomyces cerevisiae (Sc); experiment: Yeast growth inhibition assay; conditions: for IC75: Saccharomyces cerevisiae, ≥75% inhibition, read-out: Compound Concentration (ppm) sufficient for ≥75% inhibition, Sc
Method: Both tables list the concentration of each compound that was sufficient to ≥90% inhibition of growth for each of the fungal pathogens listed above. In addition, some of compounds were tested in a yeast growth inhibition assay for Saccharomyces cerevisiae (Sc). Table 2 lists the concentration of the tested compound that was sufficient to ≥75% inhibition of Saccharomyces cerevisiae (Sc).

Diplodia maydis (Dm) = experiment: In vitro pathogen growth inhibition assay, Dm; conditions: Stenocarpella maydis, 48 h
How it was run: as §1

Rhizoctonia solani (Rs) = experiment: In vitro pathogen growth inhibition assay, Rs (mycelial plugs); conditions: Rhizoctonia solani, 48 h, mycelial plugs
How it was run: as §1

Botrtyis cinerea (Bc) = experiment: In vitro pathogen growth inhibition assay, Bc; conditions: 48 h
How it was run: as §2

[6] = ≥90% inhibition, 48 hours vs 2% DMSO control, read-out: Compound Concentration (ppm) sufficient for ≥90% inhibition of growth, Fv
[7] = ≥90% inhibition, 48 hours vs 2% DMSO control, read-out: Compound Concentration (ppm) sufficient for ≥90% inhibition of growth, St
[8] = ≥90% inhibition, 48 hours vs 2% DMSO control, read-out: Compound Concentration (ppm) sufficient for ≥90% inhibition of growth, Fm
[9] = ≥90% inhibition, 48 hours vs 2% DMSO control, read-out: Compound Concentration (ppm) sufficient for ≥90% inhibition of growth, Pc
[10] = ≥90% inhibition, 48 hours vs 2% DMSO control, read-out: Compound Concentration (ppm) sufficient for ≥90% inhibition of growth, Cg
[11] = ≥90% inhibition, 48 hours vs 2% DMSO control, read-out: Compound Concentration (ppm) sufficient for ≥90% inhibition of growth, Dm
[12] = ≥90% inhibition, 48 hours vs 2% DMSO control, read-out: Compound Concentration (ppm) sufficient for ≥90% inhibition of growth, Rs
[13] = ≥90% inhibition, 48 hours vs 2% DMSO control, read-out: Compound Concentration (ppm) sufficient for ≥90% inhibition of growth, Bc
[14] = ≥90% growth inhibition, 48 hours, vs 2% DMSO control, read-out: Compound Concentration (ppm) sufficient for ≥90% inhibition of Fv
[15] = ≥90% growth inhibition, 48 hours, vs 2% DMSO control, read-out: Compound Concentration (ppm) sufficient for ≥90% inhibition of St
[16] = ≥90% growth inhibition, 48 hours, vs 2% DMSO control, read-out: Compound Concentration (ppm) sufficient for ≥90% inhibition of Fm
[17] = ≥90% growth inhibition, 48 hours, vs 2% DMSO control, read-out: Compound Concentration (ppm) sufficient for ≥90% inhibition of Pc
[18] = ≥90% growth inhibition, 48 hours, vs 2% DMSO control, read-out: Compound Concentration (ppm) sufficient for ≥90% inhibition of Cg
[19] = ≥90% growth inhibition, 48 hours, vs 2% DMSO control, read-out: Compound Concentration (ppm) sufficient for ≥90% inhibition of Dm
[20] = ≥90% growth inhibition, 48 hours, vs 2% DMSO control, read-out: Compound Concentration (ppm) sufficient for ≥90% inhibition of Rs
[21] = ≥90% growth inhibition, 48 hours, vs 2% DMSO control, read-out: Compound Concentration (ppm) sufficient for ≥90% inhibition of Bc

SMILES	IC90 [1, 6] [µg/mL]	IC90 (Septoria tritici (St); [7]) [µg/mL]	IC90 [2, 8] [µg/mL]	IC90 [3, 9] [µg/mL]	IC90 [4, 10] [µg/mL]	IC75 [5] [µg/mL]	IC90 (Diplodia maydis (Dm); [11]) [µg/mL]	IC90 (Rhizoctonia solani (Rs); [12]) [µg/mL]	IC90 (Botrtyis cinerea (Bc); [13]) [µg/mL]	IC90 [1, 14] [µg/mL]	IC90 (Septoria tritici (St); [15]) [µg/mL]	IC90 [2, 16] [µg/mL]	IC90 [3, 17] [µg/mL]	IC90 [4, 18] [µg/mL]	Compound Concentration (ppm) sufficient for ≥75% inhibition of Sc [5] [ppm]	IC90 (Diplodia maydis (Dm); [19]) [µg/mL]	IC90 (Rhizoctonia solani (Rs); [20]) [µg/mL]	IC90 (Botrtyis cinerea (Bc); [21]) [µg/mL]
COc1ccccc1[C@H](Cn1c(=O)n(C(C)(C)C(=O)N2CCCC2)c(=O)c2c(C)c(-c3ncco3)sc21)OC1CCC(=O)CC1 [Compound I-112]	10 (≈ 15.8 µM)	50 (≈ 78.8 µM)	0.4 (≈ 0.63 µM)	> 50	≥ 2	3.7 (≈ 5.83 µM)	10 (≈ 15.8 µM)	50 (≈ 78.8 µM)	2 (≈ 3.15 µM)	–	–	–	–	–	–	–	–	–
COc1ccccc1[C@H](Cn1c(=O)n(C(C)(C)C(=O)N2CCOCC2)c(=O)c2c(C)c(-c3ncco3)sc21)OC(C)C [Compound I-143]	≥ 10	> 50	2 (≈ 3.35 µM)	> 50	50 (≈ 83.8 µM)	11 (≈ 18.4 µM)	10 (≈ 16.8 µM)	> 50	2 (≈ 3.35 µM)	–	–	–	–	–	–	–	–	–
CCNC(=O)C(C)(C)n1c(=O)c2c(C)c(-c3ncco3)sc2n(C[C@H](OC(C)C)c2ccccc2OC)c1=O [Compound I-144]	10 (≈ 18 µM)	> 50	2 (≈ 3.61 µM)	> 50	50 (≈ 90.1 µM)	11 (≈ 19.8 µM)	10 (≈ 18 µM)	> 50	10 (≈ 18 µM)	–	–	–	–	–	–	–	–	–
COc1ccccc1[C@H](Cn1c(=O)n(C(C)(C)C(N)=O)c(=O)c2c(C)c(-c3ncco3)sc21)OC1CCOCC1 [Compound I-145]	> 50	> 50	2 (≈ 3.52 µM)	> 50	50 (≈ 87.9 µM)	> 33	50 (≈ 87.9 µM)	> 50	50 (≈ 87.9 µM)	–	–	–	–	–	–	–	–	–
COc1ccc(F)cc1[C@H](Cn1c(=O)n(C(C)(C)C(N)=O)c(=O)c2c(C)c(C3CCC3)sc21)OC1CCOCC1 [Compound I-147]	2 (≈ 3.49 µM)	> 50	2 (≈ 3.49 µM)	> 50	50 (≈ 87.2 µM)	33 (≈ 57.5 µM)	> 50	50 (≈ 87.2 µM)	10 (≈ 17.4 µM)	–	–	–	–	–	–	–	–	–
COc1ccc(F)cc1[C@H](Cn1c(=O)n(CCS(N)(=O)=O)c(=O)c2c(C)c(-c3ncco3)sc21)OC1CCOCC1 [Compound I-148]	50 (≈ 82.1 µM)	> 50	2 (≈ 3.29 µM)	> 50	50 (≈ 82.1 µM)	33 (≈ 54.2 µM)	> 10	50 (≈ 82.1 µM)	10 (≈ 16.4 µM)	–	–	–	–	–	–	–	–	–
COc1ccc(F)cc1[C@H](Cn1c(=O)n(C(C)(C)C(N)=O)c(=O)c2c(C)c(-c3ncco3)sc21)OCC1CCC(=O)CC1 [Compound I-149]	2 (≈ 3.26 µM)	> 50	2 (≈ 3.26 µM)	> 50	50 (≈ 81.6 µM)	11 (≈ 18 µM)	50 (≈ 81.6 µM)	> 50	10 (≈ 16.3 µM)	–	–	–	–	–	–	–	–	–
COc1ccc(F)cc1[C@H](Cn1c(=O)n(C(C)(C)C(=O)N2CCOCC2)c(=O)c2c(C)c(-n3cccn3)sc21)OC(C)C [Compound I-151]	2 (≈ 3.26 µM)	> 50	2 (≈ 3.26 µM)	> 50	50 (≈ 81.5 µM)	11 (≈ 17.9 µM)	10 (≈ 16.3 µM)	> 50	10 (≈ 16.3 µM)	–	–	–	–	–	–	–	–	–
COc1ccccc1[C@H](Cn1c(=O)n(C(C)(C)C(=O)N2CCOCC2)c(=O)c2c(C)c(-c3ncco3)sc21)OC1CCOCC1 [Compound I-152]	> 50	> 50	2 (≈ 3.13 µM)	> 50	50 (≈ 78.3 µM)	> 33	50 (≈ 78.3 µM)	> 50	10 (≈ 15.7 µM)	–	–	–	–	–	–	–	–	–
CCOC(=O)c1sc2c(c1C)c(=O)n(C(C)(C)C(=O)O)c(=O)n2C[C@H](OC(C)C)c1ccccc1OC [Compound I-153]	> 50	> 50	2 (≈ 3.76 µM)	> 50	> 50	> 33.3	50 (≈ 93.9 µM)	50 (≈ 93.9 µM)	2 (≈ 3.76 µM)	–	–	–	–	–	–	–	–	–
COc1ccccc1[C@H](Cn1c(=O)n(C(C)(C)C(N)=O)c(=O)c2c(C)c(-c3ncco3)sc21)OC1CCC(=O)CC1 [Compound I-154]	50 (≈ 86.1 µM)	> 50	2 (≈ 3.44 µM)	> 50	50 (≈ 86.1 µM)	3.7 (≈ 6.37 µM)	10 (≈ 17.2 µM)	> 50	2 (≈ 3.44 µM)	–	–	–	–	–	–	–	–	–
CCOC(=O)c1sc2c(c1C)c(=O)n(C(C)(C)C(N)=O)c(=O)n2C[C@H](OC(C)C)c1ccccc1OC [Compound I-155]	10 (≈ 18.8 µM)	> 50	2 (≈ 3.76 µM)	> 50	50 (≈ 94.1 µM)	33.3 (≈ 62.6 µM)	10 (≈ 18.8 µM)	50 (≈ 94.1 µM)	2 (≈ 3.76 µM)	–	–	–	–	–	–	–	–	–
CCOC(=O)c1sc2c(c1C)c(=O)n(C(C)(C)C(=O)N1CCCCC1)c(=O)n2C[C@H](OC1CCOCC1)c1ccccc1OC [Compound I-168]	–	–	–	–	–	–	–	–	–	≥ 0.4	≥ 10	≥ 0.4	> 50	0.4 (≈ 0.623 µM)	1.2	2 (≈ 3.12 µM)	2 (≈ 3.12 µM)	0.4 (≈ 0.623 µM)
CCNC(=O)C(C)(C)n1c(=O)c2c(C)c(-c3ncco3)sc2n(C[C@H](OC2CCOCC2)c2ccccc2OC)c1=O [Compound I-169]	–	–	–	–	–	–	–	–	–	50 (≈ 83.8 µM)	> 50	≥ 0.4	> 50	50 (≈ 83.8 µM)	11.0	≥ 10	> 50	10 (≈ 16.8 µM)
